# From PubChem BioAssay AID256 (DTP/NCI, 2004)
# Several values for one entry are separate records, joined by “and”; a condition that tells them apart may be missing. Equal values may be shown once. Toxic doses and inconclusive results are not listed.
# System: CD2F1 mice, L1210 leukemia ip, survival T/C
# Assay: NCI In Vivo Anticancer Drug Screen. Data for tumor model L1210 Leukemia (intraperitoneal) in CD2F1 (CDF1) mice
# Settings: endpoint: mean survival time, higher = longer survival
# In short: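 Vehicle-treated tumor-bearing mice served as controls (C) for compound-treated mice (T). Reported figure is T divided by C.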
# [1] = dose: 50.0 mg/kg/injection, schedule: Q01DX009 (ip), vehicle: saline with Tween-80
# [2] = dose: 100.0 mg/kg/injection, schedule: Q01DX009 (ip), vehicle: saline with Tween-80
# [3] = dose: 200.0 mg/kg/injection, schedule: Q01DX009 (ip), vehicle: saline with Tween-80
# [4] = dose: 100.0 mg/kg/injection, schedule: Q01DX001 (ip), vehicle: saline with Tween-80
# [5] = dose: 25.0 mg/kg/injection, schedule: Q04DX003 (ip), vehicle: saline
# [6] = dose: 50.0 mg/kg/injection, schedule: Q04DX003 (ip), vehicle: saline
# [7] = dose: 100.0 mg/kg/injection, schedule: Q04DX003 (ip), vehicle: saline
# [8] = dose: 10.0 mg/kg/injection, schedule: Q04DX003 (ip), vehicle: saline with Tween-80
# [9] = dose: 100.0 mg/kg/injection, schedule: Q04DX002 (ip), vehicle: saline with Tween-80
# [10] = dose: 200.0 mg/kg/injection, schedule: Q01DX001 (ip), vehicle: saline with Tween-80
# [11] = dose: 400.0 mg/kg/injection, schedule: Q01DX001 (ip), vehicle: saline with Tween-80
# [12] = dose: 400.0 mg/kg/injection, schedule: Q01DX009 (ip), vehicle: saline with Tween-80
# [13] = dose: 100.0 mg/kg/injection, schedule: Q04DX003 (ip), vehicle: saline with Tween-80
# [14] = dose: 200.0 mg/kg/injection, schedule: Q04DX003 (ip), vehicle: saline with Tween-80
# [15] = dose: 400.0 mg/kg/injection, schedule: Q04DX003 (ip), vehicle: saline with Tween-80
# [16] = dose: 200.0 mg/kg/injection, schedule: Q04DX003 (ip), vehicle: saline
# [17] = dose: 200.0 mg/kg/injection, schedule: Q04DX002 (ip), vehicle: saline with Tween-80
# [18] = dose: 100.0 mg/kg/injection, schedule: Q01DX001 (ip), vehicle: saline
# [19] = dose: 200.0 mg/kg/injection, schedule: Q01DX001 (ip), vehicle: saline
# [20] = dose: 100.0 mg/kg/injection, schedule: Q01DX009 (ip), vehicle: saline
# [21] = dose: 400.0 mg/kg/injection, schedule: Q04DX002 (ip), vehicle: saline with Tween-80
# [22] = dose: 100.0 mg/kg/injection, schedule: Q01DX001 (ip), vehicle: carboxymethylcellulose (CMC)
structure (smiles),measurement,setting,value
CCOC(=O)CC(=O)C(F)(F)F.CCOC(=O)CC(=O)C(F)(F)F.[Ni],T/C,"dose: 150.0 mg/kg/injection, schedule: Q01DX001 (ip), vehicle: saline",115 % of control
O=C(CNC(=O)NCc1ccco1)N/N=C/c1cccc([N+](=O)[O-])c1,T/C,[1],92 % of control
same,T/C,[2],88 % of control
same,T/C,[3],103 % of control
N=c1ncn(C2OC(COP(=O)(O)O)C(O)C2O)c2nc[nH]c12 (stereo not drawn),T/C,"dose: 0.78 mg/kg/injection, schedule: Q01DX005 (ip), vehicle: water",102 % of control
same,T/C,"dose: 1.56 mg/kg/injection, schedule: Q01DX005 (ip), vehicle: water",110 % of control
same,T/C,"dose: 3.13 mg/kg/injection, schedule: Q01DX005 (ip), vehicle: water",105 % of control
same,T/C,"dose: 6.25 mg/kg/injection, schedule: Q01DX005 (ip), vehicle: water",111 % of control
same,T/C,"dose: 11.3 mg/kg/injection, schedule: Q01DX005 (ip), vehicle: water",98 % of control
same,T/C,"dose: 12.5 mg/kg/injection, schedule: Q01DX005 (ip), vehicle: water",102 % of control
same,T/C,"dose: 22.5 mg/kg/injection, schedule: Q01DX005 (ip), vehicle: water",98 % of control
same,T/C,"dose: 45.0 mg/kg/injection, schedule: Q01DX005 (ip), vehicle: water",102 % of control
CC1CC1Cc1ccccc1 (stereo not drawn),T/C,[4],86 % of control
COc1ccc(OC)c(NC(=O)Nc2cc(Cl)c(OC)cc2OC)c1,T/C,[2],87 % of control
same,T/C,"dose: 178.0 mg/kg/injection, schedule: Q01DX009 (ip), vehicle: saline with Tween-80",97 % of control
same,T/C,[3],103 % of control
same,T/C,"dose: 266.0 mg/kg/injection, schedule: Q01DX009 (ip), vehicle: saline with Tween-80",95 % of control
same,T/C,"dose: 600.0 mg/kg/injection, schedule: Q01DX009 (ip), vehicle: saline with Tween-80",95 % of control
COc1cc(OC)c(/C=C/c2ccc3ccccc3[n+]2C)c(OC)c1,T/C,"dose: 0.31 mg/kg/injection, schedule: Q01DX009 (ip), vehicle: saline",103 % of control
same,T/C,"dose: 0.62 mg/kg/injection, schedule: Q01DX009 (ip), vehicle: saline",114 % of control
same,T/C,"dose: 1.25 mg/kg/injection, schedule: Q01DX009 (ip), vehicle: saline",121 % of control
C[N+](C)(C)c1cc2c(nn1)Nc1ccccc1S2,T/C,"dose: 3.12 mg/kg/injection, schedule: Q01DX009 (ip), vehicle: Klucel (hydroxypropylcellulose) (HPC)",97 % of control and 100 % of control
same,T/C,"dose: 6.25 mg/kg/injection, schedule: Q01DX009 (ip), vehicle: Klucel (hydroxypropylcellulose) (HPC)",102 % of control and 103 % of control
same,T/C,"dose: 12.5 mg/kg/injection, schedule: Q01DX009 (ip), vehicle: Klucel (hydroxypropylcellulose) (HPC)",87 % of control and 100 % of control
same,T/C,"dose: 25.0 mg/kg/injection, schedule: Q01DX009 (ip), vehicle: Klucel (hydroxypropylcellulose) (HPC)",102 % of control and 103 % of control
same,T/C,[5],111 % of control
same,T/C,"dose: 50.0 mg/kg/injection, schedule: Q01DX009 (ip), vehicle: Klucel (hydroxypropylcellulose) (HPC)",94 % of control and 100 % of control
same,T/C,[6],117 % of control
same,T/C,"dose: 100.0 mg/kg/injection, schedule: Q01DX009 (ip), vehicle: Klucel (hydroxypropylcellulose) (HPC)",96 % of control and 103 % of control
same,T/C,[7],109 % of control
S=c1nc[nH]c2c1ncn2CN1CCCCC1,T/C,[3],116 % of control
CC(O)C(=O)[O][Hg][c]1ccccc1 (stereo not drawn),T/C,[8],92 % of control
O=C(/C=C/c1ccccc1)NC(=S)NCc1ccccc1,T/C,[4],91 % of control
same,T/C,[2],97 % of control and 100 % of control
same,T/C,[9],89 % of control and 94 % of control and 98 % of control
same,T/C,[10],88 % of control
same,T/C,[3],94 % of control and 104 % of control
same,T/C,[11],91 % of control
same,T/C,[12],101 % of control and 105 % of control
CCCCOC(=O)c1ccc(NC(=O)Nc2ccccc2OC)cc1,T/C,[2],97 % of control
same,T/C,[13],108 % of control
same,T/C,[3],91 % of control
same,T/C,[14],103 % of control
same,T/C,[12],92 % of control
same,T/C,[15],88 % of control
CN(C)/N=C/c1ccccn1,T/C,[5],98 % of control
same,T/C,[6],95 % of control
same,T/C,[7],101 % of control
same,T/C,[16],120 % of control
C[n+]1ccc(Nc2ccc(NC(=O)c3ccc(Nc4cc[n+](C)c5ccc([N+](=O)[O-])cc45)cc3[N+](=O)[O-])cc2)cc1,T/C,"dose: 79.0 mg/kg/injection, schedule: Q04DX003 (ip), vehicle: saline with Tween-80",122 % of control
same,T/C,[13],113 % of control
same,T/C,"dose: 178.0 mg/kg/injection, schedule: Q04DX003 (ip), vehicle: saline with Tween-80",152 % of control
same,T/C,"dose: 266.0 mg/kg/injection, schedule: Q04DX003 (ip), vehicle: saline with Tween-80",177 % of control and 187 % of control
O=C1C=C(Nc2ccccc2)CCC1,T/C,[2],94 % of control
same,T/C,[3],100 % of control
same,T/C,[12],97 % of control
CC1CCC2(OC1)OC1CC3C4CCC5(C)CC(=O)CCC5(C)C4CCC3(C)C1C2C (stereo not drawn),T/C,[9],90 % of control
same,T/C,[17],86 % of control
OC(c1nc2ccccc2[nH]1)C(O)c1nc2ccccc2[nH]1 (stereo not drawn),T/C,[13],101 % of control
same,T/C,[14],102 % of control
same,T/C,[15],96 % of control
OC1CNCc2cc3c(cc21)OCO3 (stereo not drawn),T/C,[18],107 % of control
same,T/C,[19],104 % of control
O=CNNC(=S)Nc1ccccc1,T/C,[1],100 % of control
same,T/C,[2],96 % of control
same,T/C,[3],96 % of control
CCSCCCC(=O)O,T/C,"dose: 25.0 mg/kg/injection, schedule: Q01DX009 (ip), vehicle: saline",97 % of control
same,T/C,"dose: 50.0 mg/kg/injection, schedule: Q01DX009 (ip), vehicle: saline",93 % of control
same,T/C,[20],101 % of control
same,T/C,"dose: 100.0 mg/kg/injection, schedule: Q04DX003 (ip), vehicle: saline sonified",101 % of control
COC(=O)Nc1ccc(OS(=O)(=O)N(C)C)cc1,T/C,[13],103 % of control
same,T/C,[14],98 % of control
same,T/C,[15],103 % of control
COc1c(C)c2c(c(OC(C)=O)c1CC(=O)O)C(=O)OC2,T/C,[9],108 % of control
same,T/C,[17],100 % of control
same,T/C,[21],100 % of control
O=C(O)C(C(=O)O)C1C=CCC1 (stereo not drawn),T/C,"dose: 50.0 mg/kg/injection, schedule: Q04DX002 (ip), vehicle: saline with Tween-80",98 % of control
same,T/C,[9],102 % of control
same,T/C,[17],87 % of control
same,T/C,[21],87 % of control
COc1c(C)ccc([N+](=O)[O-])c1OC,T/C,[2],97 % of control
same,T/C,[3],98 % of control
same,T/C,[12],98 % of control
O=C(CCl)NCCCNC(=O)CCl,T/C,[13],105 % of control
CC(=O)c1cc(O)ccc1O,T/C,[18],101 % of control
same,T/C,[19],98 % of control
same,T/C,"dose: 400.0 mg/kg/injection, schedule: Q01DX001 (ip), vehicle: saline",98 % of control
CN(C)C1c2ccccc2-c2ccccc21,T/C,"dose: 50.0 mg/kg/injection, schedule: Q01DX001 (ip), vehicle: carboxymethylcellulose (CMC)",104 % of control
same,T/C,[22],104 % of control
same,T/C,"dose: 200.0 mg/kg/injection, schedule: Q01DX001 (ip), vehicle: carboxymethylcellulose (CMC)",104 % of control
same,T/C,"dose: 400.0 mg/kg/injection, schedule: Q01DX001 (ip), vehicle: carboxymethylcellulose (CMC)",110 % of control
Cc1c(C)c(OC(=O)c2ccccc2)c(Br)c(C)c1OC(=O)c1ccccc1,T/C,[4],91 % of control
same,T/C,[2],100 % of control
same,T/C,[10],100 % of control
same,T/C,[3],100 % of control
same,T/C,[11],100 % of control
same,T/C,[12],100 % of control
CCOC(=O)Nc1cc(N)c2[nH]cnc2n1,T/C,[22],96 % of control
O=C1NC(=O)C(=O)N1,T/C,[20],94 % of control
same,T/C,"dose: 200.0 mg/kg/injection, schedule: Q01DX009 (ip), vehicle: saline",105 % of control
same,T/C,"dose: 400.0 mg/kg/injection, schedule: Q01DX009 (ip), vehicle: saline",108 % of control
CC[N+](CC)(CC)Cc1ccccc1,T/C,[8],105 % of control
same,T/C,"dose: 20.0 mg/kg/injection, schedule: Q04DX003 (ip), vehicle: saline with Tween-80",94 % of control
same,T/C,"dose: 40.0 mg/kg/injection, schedule: Q04DX003 (ip), vehicle: saline with Tween-80",98 % of control
CNC(=S)N(C)c1nc(C)cs1,T/C,[9],91 % of control
same,T/C,[17],95 % of control
same,T/C,[21],103 % of control
N=C(N)SCCCSC(=N)N,T/C,"dose: 25.0 mg/kg/injection, schedule: Q01DX009 (ip), vehicle: saline with Tween-80",101 % of control
same,T/C,[1],96 % of control
same,T/C,[6],98 % of control
same,T/C,[2],90 % of control
same,T/C,[7],104 % of control
same,T/C,[16],102 % of control
